Results published in patent US7964599B2, “Therapeutic compounds” (Allergan, Inc., priority 2008, dated 2011).

Columns and labels:
Format in all cases: in vivo
normotensive dogs = test: Intraocular pressure reduction in normotensive dogs; settings: change from baseline
Protocol: (§1) Compounds such as those described in the above are tested in vivo to measure its ability to reduce intraocular pressure. Compound 1 is tested in normotensive dogs.

[1] = tested on: laser-induced hypertensive monkeys; test: Intraocular pressure reduction in laser-induced hypertensive monkeys; settings: change from baseline
Protocol: [The source words this procedure for another organism and reports this organism under the same test.] as §1

[2] = tested on: lashes and adjacent hairs of patients; test: Eyelash/hair growth observed in glaucoma patients treated in one eye; settings: glaucoma patient treated in only one eye
Source text: In the course of treating patients having glaucoma, treatment may only be appropriate in one eye. […] The lash appearance on the lids of the treated eyes would have appeared quite attractive if it represented a bilateral phenomenon. As a result of its asymmetric nature, the long lashes on one side could be construed as disturbing from a cosmetic standpoint. A systemic examination was preformed as a result of the asymmetric phenomenon. It soon became apparent that this altered appearance was not an isolated finding. […] Definite differences could be identified to varying degrees in the lashes and adjacent hairs of all patients who were taking the drug on a unilateral basis for longer than 6 months.
The changes in the lashes were apparent on gross inspection in several patients once attention was focused on the issue. In those with light colored hair and lashes, the differences were only seen easily with the aid of the high magnification and lighting capabilities of the slit lamp biomicroscope. In the course of glaucoma follow-up examination, attention is generally immediately focused on the eye itself. As a result of the high power magnification needed only one eye is seen at a time and the eye is seen at a high enough power that the lashes are not in focus. […]

| Compound | intraocular pressure (IOP) (normotensive dogs) | IOP [1] | lash appearance in treated eye versus non-treated eye [2] |
| --- | --- | --- | --- |
| (Z)-7-[(1R,2S,3R,5R)-5-Chloro-2-(4-hexanoyl-phenyl)-3-hydroxy-cyclopentyl]-hept-5-enoic acid [Compound 3] | decreases from baseline | decreases from baseline |  |
| CCCCCC(=O)c1ccc([C@H]2C(O)C[C@@H](Cl)[C@@H]2C/C=C\CCCC(=O)OCCN2CCOCC2)cc1 (stereo partly drawn) [Compound 8] | decreases from baseline | decreases from baseline |  |
| CCCCCC(O)c1ccc([C@H]2C(=O)C[C@@H](Cl)[C@@H]2C/C=C\CCCC(=O)OCCN2CCOCC2)cc1 (stereo partly drawn) [Compound 6] | decreases from baseline | decreases from baseline |  |
| CCCCCC(=O)c1ccc([C@H]2C(=O)C[C@@H](Cl)[C@@H]2C/C=C\CCCC(=O)OCCN2CCOCC2)cc1 [Compound 5] | decreases from baseline | decreases from baseline |  |
| (Z)-7-[(1R,2S,3R,5R)-5-Chloro-2-(4-hexanoyl-phenyl)-3-hydroxy-cyclopentyl]-hept-5-enoic acid methyl ester [Compound 2] | decreases from baseline | decreases from baseline |  |
| CCNC(=O)CCC/C=C\C[C@@H]1[C@@H](/C=C/[C@@H](O)CCc2ccccc2)[C@H](O)C[C@@H]1O [bimatoprost] |  |  | longer, thicker, and fuller |
| (Z)-7-{(1R,2S,3R,5R)-5-Chloro-3-hydroxy-2-[4-(1-hydroxy-hexyl)-phenyl]-cyclopentyl}-hept-5-enoic acid methyl ester [Compound 1] | decreases from baseline | decreases from baseline |  |
| CCCCCC(O)c1ccc([C@H]2C(O)C[C@@H](Cl)[C@@H]2C/C=C\CCCC(=O)OCCN2CCOCC2)cc1 (stereo partly drawn) [Compound 7] | decreases from baseline | decreases from baseline |  |
